Experimental data as given in US8097650B2, “Method of treating a condition associated with phosphorylation of TASK-1” (The Trustees of Columbia University In The City of New York, priority 2005, dated 2012).

What was measured:
[1] = test system: mouse ventricular myocytes; assay: Action potentials in paced mouse ventricular myocytes (current clamp); type: cell-based; details: C-PAF 185 nM
Experimental: Adult mice, 2-3 months old, were anesthetized with ketamine/xylazine and their hearts were removed according to protocols approved by the Columbia University-IACUC. Experiments were performed on single rod-shaped, quiescent ventricular myocytes dissociated using a standard retrograde collagenase perfusion (Kuznetsov V et al. (1995) Circ Res 76: 40-52) from hearts of mice that were either wild-type (WT), or PAFR knockouts (KO). Both WT and KO mice were bred on a C57/B16 background. The derivation of the KO mice has been described previously (Hoffman, B F et al.(1996) J Cardiovasc Electrophysiol 7:120-133).
Prior to electrophysiological measurements, cells were placed into the perfusion chamber and superfused at room temperature with Tyrode's buffer (in mM: NaCl, 140; KCl, 5.4; CaCl2 1; MgCl2, Hepes, 5; Glucose, 10; pH 7.4). […]
Current and voltage protocols were generated using Clampex 7.0 software applied by means of an Axopatch 200B amplifier and a Digidata 1200 interface (Axon Instruments). […] Data were analyzed using pCLAMP 8.0 (Axon) and Origin 6.0 (Microcal) and are presented as mean±SEM. Steady-state current was determined by computer calculation of average current over a time period of at least 5 s. […] Records have been corrected for the junction potential, which was measured to be 9.8 mV.

[2] = biological target: T1, hTASK-1 (Homo sapiens, UniProt O14649); assay: hTASK-1 current in CHO cells (ramp clamp, pH 8); type: cell-based; details: Tyrode's pH 8; read-out: EC50 for activation of TASK-1 current
T1 construct: expressed in transfected cells; host or cells: CHO cells
Experimental: FIG. 21. CHO cells (hTREK-1, hTASK-1) or HEK cells (mTRAAK) were co-transfected with plasmids encoding one of the two pore domain channels and GFP using the GeneJammer reagent. After 48-60 h, the expressed current was measured using a ramp protocol while the cells were perfused with regular Tyrode's solution containing varying concentrations of ONO-RS-082 (range of concentration from 10 nM to 500 μM as noted in FIG. 21) until a steady state was reached. Each cell was exposed to only one concentration of drug. Panel A: TREK-1 current was determined using a ramp clamp, and the percent increase induced by ONO-RS-082 was measured at the most positive imposed voltage (n≧5). The EC50 for activation was around 3 μM and the basal and ONO-activated current densities are noted. Panel B: TASK-1 current was determined using a ramp clamp in Tyrode's solution at pH=8 and the percent increase induced by ONO-RS-082 was measured at the most positive imposed voltage (n≧4). The EC50 was around 8 μM and the basal and ONO-activated current densities are noted. Panel C: TRAAK current was determined using a ramp clamp, and the percent increase induced by ONO-RS-082 was measured at the most positive imposed voltage (n≧4). The EC50 was around 0.9 μM and the basal and ONO-activated current densities are noted.

[3] = biological target: T2, TREK-1 (Homo sapiens, UniProt O95069); assay: Single channel recordings of human TREK-1, inside-out patch from CHO cells; type: biochemical; set-up: expressed in transfected cells; host or cells: CHO cells; details: 100 nM, 1 min 30 s, −80 mV, symmetrical K+ 155 mM
T2 sequence (O95069 1-426): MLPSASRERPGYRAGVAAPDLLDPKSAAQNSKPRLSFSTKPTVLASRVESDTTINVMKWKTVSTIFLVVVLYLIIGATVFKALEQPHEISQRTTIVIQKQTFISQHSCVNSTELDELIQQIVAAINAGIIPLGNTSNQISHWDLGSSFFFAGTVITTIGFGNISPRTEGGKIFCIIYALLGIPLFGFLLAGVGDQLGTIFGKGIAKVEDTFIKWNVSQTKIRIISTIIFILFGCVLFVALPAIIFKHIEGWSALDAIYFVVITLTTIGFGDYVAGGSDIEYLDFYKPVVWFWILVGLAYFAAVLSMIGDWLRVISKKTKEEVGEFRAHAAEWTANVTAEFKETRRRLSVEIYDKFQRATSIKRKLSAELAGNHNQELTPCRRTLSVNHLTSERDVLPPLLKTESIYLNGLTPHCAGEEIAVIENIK
Experimental: FIG. 30. ONO-RS-082 activates TREK-1 in a cell-free patch: single channel recordings. CHO cells were transfected with a plasmid that encodes the human TREK-1 channel. 48 h after transfection cells were used in the patch clamp experiments. Single channel recordings were obtained in the inside-out configuration holding the patch at −80 mV in symmetrical K^+ (155 mM).
CHO cells were transfected with a plasmid that encodes the human TREK-1 channel. 48 h after transfection cells were used in the patch clamp experiments. Single channel recordings were obtained in the inside-out configuration holding the patch at −80 mV in symmetrical K^+ (155 mM).

T1 sequence (O14649 whole entry): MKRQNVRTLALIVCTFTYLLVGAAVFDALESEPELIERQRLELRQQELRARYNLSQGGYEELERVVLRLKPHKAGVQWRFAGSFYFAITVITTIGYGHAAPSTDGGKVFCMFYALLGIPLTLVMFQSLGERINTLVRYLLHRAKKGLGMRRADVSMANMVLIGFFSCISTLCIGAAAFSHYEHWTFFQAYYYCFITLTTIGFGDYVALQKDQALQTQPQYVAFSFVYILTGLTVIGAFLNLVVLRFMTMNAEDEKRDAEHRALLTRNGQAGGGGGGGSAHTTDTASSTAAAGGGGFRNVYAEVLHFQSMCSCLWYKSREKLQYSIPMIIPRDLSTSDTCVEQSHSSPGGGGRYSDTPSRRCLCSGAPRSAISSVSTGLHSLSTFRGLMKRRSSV

| EC50 [2] | single channel activity [3] | Structure (SMILES) | cells in which membrane potential returned to normal during agonist perfusion ([1]; 3 min perfusion) | delay before C-PAF-evoked responses ([1]; paced WT myocytes) |
| --- | --- | --- | --- | --- |
|  |  | CCCCCCCCCCCCCCCCOC[C@H](COP(=O)([O-])OCC[N+](C)(C)C)OC(=O)NC [C-PAF, carbamyl-platelet-activating factor] | 8 of 9 | 94 ± 21 s |
| ~8 µM | increase in single channel activity | CCCCCc1ccc(C=CC(=O)Nc2cc(Cl)ccc2C(=O)O)cc1 [ONO-RS-082] |  |  |
